Test results reported in US20260198498A1, “FUNGICIDAL COMPOSITIONS” (SYNGENTA CROP PROTECTION AG, priority 2022, published 2026).

Assays:
Alternaria solani = test: Example B1: Alternaria solani/Tomato/Leaf Disc (Early Blight); format: in vivo; conditions: foliar, tomato leaf disks, inoculated 2 days after application, compared to untreated control
Method: Example B1: Alternaria solani/Tomato/Leaf Disc (Early Blight)
Tomato leaf disks cv. Baby are placed on agar in multiwell plates (24-well format) and sprayed with the formulated test compound diluted in water. The leaf disks are inoculated with a spore suspension of the fungus 2 days after application. The inoculated leaf disks are incubated at 23° C./21° C. (day/night) and 80% rh under a light regime of 12/12 h (light/dark) in a climate cabinet and the activity of a compound is assessed as percent disease control compared to untreated when an appropriate level of disease damage appears on untreated check leaf disks (5-7 days after application).

[1] = system: Botryotinia fuckeliana (Botrytis cinerea); test: Example B2: Botryotinia fuckeliana (Botrytis cinerea)/Liquid Culture (Gray Mould); format: cell-based; conditions: liquid culture, growth inhibition photometrically 3 to 4 days after application, read-out: control of Botryotinia fuckeliana
Method: Example B2: Botryotinia fuceliana (Botrytis cinerea)/Liquid Culture (Gray Mould)
(§1) Conidia of the fungus from cryogenic storage are directly mixed into nutrient broth (Vogels broth). After placing a (DMSO) solution of test compound into a microtiter plate (96-well format), the nutrient broth containing the fungal spores is added. The test plates are incubated at 24° C. and the inhibition of growth is determined photometrically 3 to 4 days after application.

[2] = system: Glomerella lagenarium (Colletotrichum lagenarium); test: Example B5: Glomerella lagenarium (Colletotrichum lagenarium)/Liquid Culture (Anthracnose); format: cell-based; conditions: Colletotrichum orbiculare, liquid culture, photometrically 3 to 4 days after application, read-out: control of Glomerella lagenarium
Method: Example B5: Glomerella lagenarium (Colletotrichum lagenarium)/Liquid Culture (Anthracnose)
as §1, with “(PDB potato dextrose” for “(Vogels”, “measured” for “determined”

Fusarium culmorum = format: in vivo; conditions: 200 ppm; wheat spikelets, preventative, inoculated 1 day after application
[3] = system: Gibberella zeae (Fusarium graminearum); format: in vivo; conditions: 200 ppm; wheat spikelets, preventative, inoculated one day after application
[4] = system: Phaeosphaeria nodorum (Septoria nodorum); test: Example B11: Phaeosphaeria nodorum (Septoria nodorum)/Wheat/Leaf Disc Preventative (Glume Blotch); format: in vivo; conditions: Parastagonospora nodorum, foliar, wheat leaf segments, inoculated 2 days after application
Method: Example B11: Phaeosphaeria nodorum (Septoria nodorum)/Wheat/Leaf Disc Preventative (Glume Blotch)
(§2) Wheat leaf segments cv. Kanzler are placed on agar in a multiwell plate (24-well format) and sprayed with the formulated test compound diluted in water. The leaf disks are inoculated with a spore suspension of the fungus 2 days after application. The inoculated test leaf disks are incubated at 20° C. and 75% rh under a light regime of 12 h light/12 h darkness in a climate cabinet and the activity of a compound is assessed as percent disease control compared to untreated when an appropriate level of disease damage appears in untreated check leaf disks (5-7 days after application).

[5] = system: Monographella nivalis (Microdochium nivale); test: Example B12: Monographella nivalis (Microdochium nivale)/Liquid Culture (Foot Rot Cereals); format: cell-based; conditions: liquid culture, photometrically 4 to 5 days after application, read-out: control of Monographella nivalis
Method: Example B12: Monographella nivalis (Microdochium nivale)/Liquid Culture (Foot Rot Cereals)
as §1, with “broth (PDB potato dextrose” for “broth (Vogels”, “photometrically 4” for “photometrically 3”, “to 5” for “to 4”

[6] = system: Mycosphaerella arachidis (Cercospora arachidicola); test: Example B13: Mycosphaerella arachidis (Cercospora arachidicola)/Liquid Culture (Early Leaf Spot); format: cell-based; conditions: liquid culture, photometrically 4 to 5 days after application, read-out: control of Mycosphaerella arachidis
Method: Example B13: Mycosphaerella arachidis (Cercospora arachidicola)/Liquid Culture (Early Leaf Spot)
as §1, with “broth (PDB potato dextrose” for “broth (Vogels”, “photometrically 4” for “photometrically 3”, “to 5” for “to 4”

Pyrenophora teres = test: Example B18: Pyrenophora teres/Barley/Leaf Disc Preventative (Net Blotch); format: in vivo; conditions: foliar, barley leaf segments, inoculated 2 days after application
Method: Example B18: Pyrenophora teres/Barley/Leaf Disc Preventative (Net Blotch)
as §2, with “Barley” for “Wheat”, “Hasso” for “Kanzler”, “segments” for “disks”, “inoculated” for “inoculated test”, “65%” for “75%”, “as” for “as percent”

[7] = system: Mycosphaerella graminicola (Septoria tritici); test: Example B21: Mycosphaerella graminicola (Septoria tritici)/Liquid Culture (Septoria Blotch); format: cell-based; conditions: Zymoseptoria tritici, liquid culture, photometrically 4-5 days after application, read-out: control of Mycosphaerella graminicola
Method: Example B21: Mycosphaerella graminicola (Septoria tritici)/Liquid Culture (Septoria Blotch)
as §1, with “(PDB potato dextrose” for “(Vogels”, “4-5” for “3 to 4”

[8] = Comparison of fungicidal activity of the separated stereoisomers (peaks 1 to 4); conditions: SFC-separated stereoisomers of Example P3
[9] = system: Puccinia recondita f. sp. tritici; test: Example B16: Puccinia recondita f. sp. tritici/Wheat/Leaf Disc Preventative (Brown Rust); format: in vivo; conditions: 200 ppm, wheat leaf segments, inoculated 1 day after application
Method: Example B16: Puccinia recondita f. sp. tritici/Wheat/Leaf Disc Preventative (Brown Rust)
Wheat leaf segments cv. Kanzler are placed on agar in multiwell plates (24-well format) and sprayed with the formulated test compound diluted in water. The leaf disks are inoculated with a spore suspension of the fungus 1 day after application. The inoculated leaf segments are incubated at 19° C. and 75% rh under a light regime of 12 h light/12 h darkness in a climate cabinet and the activity of a compound is assessed as percent disease control compared to untreated when an appropriate level of disease damage appears in untreated check leaf segments (7-9 days after application).

[10] = system: Magnaporthe grisea (Pyricularia oryzae); format: in vivo; conditions: 200 ppm; rice leaf segments, preventative, inoculated 2 days after application
[11] = system: Thanatephorus cucumeris (Rhizoctonia solani); test: Example B19: Thanatephorus cucumeris (Rhizoctonia solani)/Liquid Culture (Foot Rot, Damping-Off); format: cell-based; conditions: 20 ppm; liquid culture, photometrically 3-4 days after application
Method: Example B19: Thanatephorus cucumeris (Rhizoctonia solani)/Liquid Culture (Foot Rot, Damping-Off)
Mycelia fragments of a newly grown liquid culture of the fungus are directly mixed into nutrient broth (PDB potato dextrose broth). After placing a (DMSO) solution of the test compounds into a microtiter plate (96-well format), the nutrient broth containing the fungal material is added. The test plates are incubated at 24° C. and the inhibition of growth is determined photometrically 3-4 days after application.

Plasmopara viticola = format: in vivo; conditions: 200 ppm; grape vine leaf disks, preventative, inoculated 1 day after application

SMILES	pest or weed control at 200 ppm (Alternaria solani) [%]	inhibition of growth at 20 ppm [1] [%]	inhibition of growth at 20 ppm [2] [%]	control of Fusarium culmorum (Fusarium culmorum)	control of Gibberella zeae [3]	pest or weed control at 200 ppm [4] [%]	inhibition of growth at 20 ppm [5] [%]	inhibition of growth at 20 ppm [6] [%]	pest or weed control at 200 ppm (Pyrenophora teres) [%]	inhibition of growth at 20 ppm [7] [%]	fungicidal activity compared with the other enantiomer [8]	control of Puccinia recondita f. sp. tritici [9]	control of Magnaporthe grisea [10]	control of Thanatephorus cucumeris [11]	control of Plasmopara viticola (Plasmopara viticola)
Cc1c([C@H]2CN(C(=O)c3cc(-c4ncc(F)cc4F)on3)[C@@H](C)c3ccccc32)cnn1C (racemic) [X.21, [5-(3,5-difluoro-2-pyridyl)isoxazol-3-yl]-[rac-(1S,4S)-4-(1,5-dimethylpyrazol-4-yl)-1-methyl-3,4-dihydro-1H-isoquinolin-2-yl]methanone]	≥ 80	≥ 80	≥ 80	at least 80%	at least 80%	≥ 80	≥ 80	≥ 80	≥ 80	≥ 80					
C[C@H]1c2ccccc2[C@@](C)(c2cnn(C)c2)CN1C(=O)c1cc(-c2ccc(F)cc2F)on1 (single isomer, unassigned) [X.22]											more fungicidally active than the compound of peak 3				
C[C@@H]1c2ccccc2[C@@](C)(c2cnn(C)c2)CN1C(=O)c1cc(-c2ccc(F)cc2F)on1 (single isomer, unassigned) [peak 1]											more fungicidally active than the compound of peak 2				
Cc1c(C2CN(C(=O)c3nc(-c4ccc(F)cc4F)no3)Cc3ccccc32)cnn1C (stereo not drawn) [X.02, [3-(2,4-difluorophenyl)-1,2,4-oxadiazol-5-yl]-[4-(1,5-dimethylpyrazol-4-yl)-3,4-dihydro-1H-isoquinolin-2-yl]methanone]	≥ 80	≥ 80	≥ 80			≥ 80	≥ 80	≥ 80		≥ 80					
Cn1cc(C2(C)CN(C(=O)c3cc(-c4ccc(F)cc4F)on3)Cc3ccccc32)cn1 (stereo not drawn) [X.14, [5-(2,4-difluorophenyl)isoxazol-3-yl]-[4-methyl-4-(1-methylpyrazol-4-yl)-1,3-dihydroisoquinolin-2-yl]methanone]		≥ 80	≥ 80			≥ 80	≥ 80	≥ 80	≥ 80	≥ 80					
Cc1c(C2CN(C(=O)c3cc(-c4ccc(F)cc4F)on3)Cc3ccccc32)cnn1C (stereo not drawn) [X.16, [5-(2,4-difluorophenyl)isoxazol-3-yl]-[4-(1,5-dimethylpyrazol-4-yl)-3,4-dihydro-1H-isoquinolin-2-yl]methanone]		≥ 80	≥ 80			≥ 80	≥ 80	≥ 80	≥ 80	≥ 80		at least 80%	at least 80%	at least 80%	
Cn1cc(C2CN(C(=O)c3noc(-c4ccccc4)n3)Cc3ccccc32)cn1 (stereo not drawn) [X.17, [4-(1-methylpyrazol-4-yl)-3,4-dihydro-1H-isoquinolin-2-yl]-(5-phenyl-1,2,4-oxadiazol-3-yl)methanone]		≥ 80				≥ 80	≥ 80	≥ 80		≥ 80					at least 80%
